Experimental data taken from ChEMBL document CHEMBL1136566, “Synthesis, opioid receptor binding, and functional activity of 5'-substituted 17-cyclopropylmethylpyrido[2',3':6,7]morphinans” (Bioorg Med Chem Lett, 2003).
pKi: −log10 of the molar value.

How the values were obtained:
[1] = Selectivity ratio was measured between kappa and delta opioid receptor
[2] = Selectivity ratio between delta and mu opioid receptor in corresponding mouse vas-deferens and guinea-pig ileal longitudinal muscle; type: functional
[3] = target: Opioid receptors; mu & delta (Rattus norvegicus) (UniProt P33533+P33535); experiment: Selectivity ratio was measured between mu and delta opioid receptor; type: protein assay
Chain of Opioid receptors; mu & delta (Rattus norvegicus) (P33533 whole entry, looked up): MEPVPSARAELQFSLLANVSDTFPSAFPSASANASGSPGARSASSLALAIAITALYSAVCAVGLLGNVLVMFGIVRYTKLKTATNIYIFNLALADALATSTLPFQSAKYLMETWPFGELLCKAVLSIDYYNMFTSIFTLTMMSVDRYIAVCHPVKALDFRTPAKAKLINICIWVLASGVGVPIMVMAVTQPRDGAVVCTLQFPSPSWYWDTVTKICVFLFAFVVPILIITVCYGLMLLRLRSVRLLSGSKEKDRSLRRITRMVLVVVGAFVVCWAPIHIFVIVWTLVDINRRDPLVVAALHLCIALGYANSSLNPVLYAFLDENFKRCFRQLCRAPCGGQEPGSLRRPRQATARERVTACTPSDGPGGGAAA
Chain of Opioid receptors; mu & delta (Rattus norvegicus) (P33535 whole entry, looked up): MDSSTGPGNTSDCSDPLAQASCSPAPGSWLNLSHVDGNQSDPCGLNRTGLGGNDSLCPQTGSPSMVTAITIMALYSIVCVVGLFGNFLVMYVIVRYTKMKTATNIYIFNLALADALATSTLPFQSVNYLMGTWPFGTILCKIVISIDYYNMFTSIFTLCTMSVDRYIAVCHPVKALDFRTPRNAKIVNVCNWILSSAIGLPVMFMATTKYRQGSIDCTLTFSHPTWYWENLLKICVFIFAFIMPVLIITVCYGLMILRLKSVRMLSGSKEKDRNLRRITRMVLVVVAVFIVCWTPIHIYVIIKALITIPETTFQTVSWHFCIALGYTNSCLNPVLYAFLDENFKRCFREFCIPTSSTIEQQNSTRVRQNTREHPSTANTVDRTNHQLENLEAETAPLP

Mu-type opioid receptor [4] = target: Mu-type opioid receptor (Rattus norvegicus, UniProt P33535); experiment: Binding affinity to mu opioid receptor was measured using [3H]DAMGO
Chain of Mu-type opioid receptor (Rattus norvegicus, UniProt P33535) (P33535 whole entry): as the sequence (P33535 whole entry, looked up) above

[5] = target: Mu-type opioid receptor (Cavia porcellus) (UniProt P97266); experiment: Antagonist potency against mu opioid receptor was measured in guinea-pig ileal longitudinal muscle using PL-017; type: functional
Chain of Mu-type opioid receptor (Cavia porcellus) (P97266 whole entry): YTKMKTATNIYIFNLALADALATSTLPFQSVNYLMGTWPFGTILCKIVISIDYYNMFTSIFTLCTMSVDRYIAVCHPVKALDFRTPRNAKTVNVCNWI

[6] = target: T1, Kappa-type opioid receptor (Cavia porcellus, UniProt P41144); experiment: Antagonist activity on agonist stimulated [35S]GTP-gamma-S, binding in guinea pig caudate membranes (10 uM U69,593 as the agonist ligand for kappa-receptor); type: functional, cell membranes
T1 sequence (P41144 whole entry): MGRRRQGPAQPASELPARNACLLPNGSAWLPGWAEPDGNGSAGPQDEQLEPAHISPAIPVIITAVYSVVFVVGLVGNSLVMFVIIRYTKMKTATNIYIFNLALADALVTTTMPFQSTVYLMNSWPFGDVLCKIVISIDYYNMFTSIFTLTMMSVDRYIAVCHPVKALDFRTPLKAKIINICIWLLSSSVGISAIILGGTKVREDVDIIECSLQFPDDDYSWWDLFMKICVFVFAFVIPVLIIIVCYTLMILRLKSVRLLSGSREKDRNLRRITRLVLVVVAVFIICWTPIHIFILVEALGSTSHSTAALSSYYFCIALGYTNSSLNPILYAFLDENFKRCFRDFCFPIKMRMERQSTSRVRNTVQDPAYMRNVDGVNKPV

Mu-type opioid receptor [7] = target: T2, Mu-type opioid receptor (Cavia porcellus, UniProt P97266); experiment: Antagonist activity on agonist stimulated [35S]GTP-gamma-S, binding in guinea pig caudate membranes (10 uM DAMGO as the agonist ligand for Mu-receptor); type: functional, cell membranes
T2 sequence (P97266 whole entry): as the sequence (P97266 whole entry) above

[8] = target: T1, Kappa-type opioid receptor; experiment: Binding affinity for kappa opioid receptor was measured using [3H]U-69593
[9] = target: Delta-type opioid receptor (Rattus norvegicus, UniProt P33533); experiment: Binding affinity to delta opioid receptor was measured using [3H]DADLE
Chain of Delta-type opioid receptor (P33533 whole entry): as the sequence (P33533 whole entry, looked up) above

[10] = target: Delta-type opioid receptor (Mus musculus) (UniProt P32300); experiment: Antagonist potency against delta opioid receptor was measured in mouse vas-deferens using DPDPE; type: functional
Chain of Delta-type opioid receptor (Mus musculus) (P32300 whole entry): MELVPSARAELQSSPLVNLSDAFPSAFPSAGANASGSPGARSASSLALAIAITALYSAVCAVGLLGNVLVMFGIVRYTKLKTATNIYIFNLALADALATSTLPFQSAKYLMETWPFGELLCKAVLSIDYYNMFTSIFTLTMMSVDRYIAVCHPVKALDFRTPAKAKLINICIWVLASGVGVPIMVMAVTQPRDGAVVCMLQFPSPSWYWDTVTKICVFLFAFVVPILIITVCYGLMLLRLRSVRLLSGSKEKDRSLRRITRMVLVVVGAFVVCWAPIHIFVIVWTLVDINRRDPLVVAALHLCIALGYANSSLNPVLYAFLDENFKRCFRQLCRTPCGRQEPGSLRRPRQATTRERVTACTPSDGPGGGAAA

Mu-type opioid receptor [11] = target: T2, Mu-type opioid receptor; experiment: Antagonist activity on agonist stimulated [35S]GTP-gamma-S, binding in guinea pig caudate membranes (10 uM DAMGO as the agonist ligand for mu-receptor); type: functional, cell membranes

SMILES	Selectivity ratio [1]	Selectivity ratio [2]	Selectivity ratio [3]	pKi (Mu-type opioid receptor [4])	Ke [5]	pKi [6]	pKi (Mu-type opioid receptor [7])	pKi [8]	pKi [9]	Ke [10]	pKi (Mu-type opioid receptor [11])
Oc1ccc2c3c1O[C@H]1c4ncccc4C[C@@]4(O)[C@@H](C2)N(CC2CC2)CC[C@]314	11	5.1	1.9								
N=C(N)Nc1cnc2c(c1)C[C@@]1(O)[C@H]3Cc4ccc(O)c5c4[C@@]1(CCN3CC1CC1)[C@H]2O5	0.037		1.4	7.59	500 nM	9.00	8.21	9.15	7.73	170 nM	
Oc1ccc2c3c1O[C@H]1c4ncc(CNc5ccccc5)cc4C[C@@]4(O)[C@@H](C2)N(CC2CC2)CC[C@]314	10.6	0.9	3.3	8.22	5.9 nM			7.72	8.74	6.5 nM	
N#Cc1cnc2c(c1)C[C@@]1(O)[C@H]3Cc4ccc(O)c5c4[C@@]1(CCN3CC1CC1)[C@H]2O5	7.5	>22	3.6	7.80	> 1000 nM			7.47	8.35	44 nM	
Oc1ccc2c3c1O[C@H]1c4ncc(NCc5ccccc5)cc4C[C@@]4(O)[C@@H](C2)N(CC2CC2)CC[C@]314	5.2	0.9	11.5	7.82	5.9 nM			8.17	8.89	6.5 nM	
Oc1ccc2c3c1O[C@H]1c4ncc(-n5cccc5)cc4C[C@@]4(O)[C@@H](C2)N(CC2CC2)CC[C@]314	19		30	7.72	62 nM	8.06	8.38	7.91	9.19	6.6 nM	
Oc1ccc2c3c1O[C@H]1c4ncc(Br)cc4C[C@@]4(O)[C@@H](C2)N(CC2CC2)CC[C@]314	46	10	12.9	7.81	36 nM			7.25	8.92	3.6 nM	
Oc1ccc2c3c1O[C@H]1c4[nH]c5ccccc5c4C[C@@]4(O)[C@@H](C2)N(CC2CC2)CC[C@]314 [NALTRINDOLE]						8.22				0.53 nM	8.74
Oc1ccc2c3c1O[C@H]1c4[nH]c5c(c4C[C@@]4(O)[C@@H](C2)N(CC2CC2)CC[C@]314)C[C@@]1(O)[C@H]2Cc3ccc(O)c4c3[C@@]1(CCN2CC1CC1)[C@H]5O4 [NORBINALTORPHIMINE]						9.92					7.83
O=[N+]([O-])c1cnc2c(c1)C[C@@]1(O)[C@H]3Cc4ccc(O)c5c4[C@@]1(CCN3CC1CC1)[C@H]2O5	17	3.8	3.2	7.76	200 nM			7.04	8.26	53 nM	
CCOC(=O)c1cnc2c(c1)C[C@@]1(O)[C@H]3Cc4ccc(O)c5c4[C@@]1(CCN3CC1CC1)[C@H]2O5		4.4									
Nc1cnc2c(c1)C[C@@]1(O)[C@H]3Cc4ccc(O)c5c4[C@@]1(CCN3CC1CC1)[C@H]2O5	1.5	1.9	1.6		48 nM					25 nM	
